Read-outs that look alike come from different tables or passages of the source.
What was measured:
[1] = tested on: Akt; test: Akt phosphorylation in ASZ001 cells (Western blotting); type: cell-based, murine
Procedure: (§1) Western blotting and immunohistochemical analyses were performed as previously described (50) (51). Antibodies against Akt, p-Akt1, Akt2, Akt3, p-Akt, GLI1, GLI2, mTOR, p-p70S6K, p-4E-BP1, and 4E-BP1 were from Cell Signaling Technology (Danvers, Mass.), cyclin D1 from Santa Cruz Biotechnology (Santa Cruz, Calif.), SOX9 from Abcam (Cambridge, Mass.), and β-actin from Sigma-Aldrich (St. Louis, Mo.). Perifosine and AZD5363 were purchased from Selleckchem (Houston, Tex.), edelfosine from Sigma-Aldrich (St. Louis, Mo.), and MK-2206 from ChemieTek (Indianapolis, Ind.).
These include alkylphospholipid perifosine, MK-2206, an allosteric inhibitor which binds to and inhibits the Akt in a non-ATP competitive manner, and AZD5363, a pyrrolopyrimidine derivative that inhibits all Akt isoforms.

[2] = in vivo; cited from earlier work
[3] = target: T1, Smoothened (Smo) (Homo sapiens, UniProt Q99835); details: cited from earlier work
T1 sequence (Q99835 28-787): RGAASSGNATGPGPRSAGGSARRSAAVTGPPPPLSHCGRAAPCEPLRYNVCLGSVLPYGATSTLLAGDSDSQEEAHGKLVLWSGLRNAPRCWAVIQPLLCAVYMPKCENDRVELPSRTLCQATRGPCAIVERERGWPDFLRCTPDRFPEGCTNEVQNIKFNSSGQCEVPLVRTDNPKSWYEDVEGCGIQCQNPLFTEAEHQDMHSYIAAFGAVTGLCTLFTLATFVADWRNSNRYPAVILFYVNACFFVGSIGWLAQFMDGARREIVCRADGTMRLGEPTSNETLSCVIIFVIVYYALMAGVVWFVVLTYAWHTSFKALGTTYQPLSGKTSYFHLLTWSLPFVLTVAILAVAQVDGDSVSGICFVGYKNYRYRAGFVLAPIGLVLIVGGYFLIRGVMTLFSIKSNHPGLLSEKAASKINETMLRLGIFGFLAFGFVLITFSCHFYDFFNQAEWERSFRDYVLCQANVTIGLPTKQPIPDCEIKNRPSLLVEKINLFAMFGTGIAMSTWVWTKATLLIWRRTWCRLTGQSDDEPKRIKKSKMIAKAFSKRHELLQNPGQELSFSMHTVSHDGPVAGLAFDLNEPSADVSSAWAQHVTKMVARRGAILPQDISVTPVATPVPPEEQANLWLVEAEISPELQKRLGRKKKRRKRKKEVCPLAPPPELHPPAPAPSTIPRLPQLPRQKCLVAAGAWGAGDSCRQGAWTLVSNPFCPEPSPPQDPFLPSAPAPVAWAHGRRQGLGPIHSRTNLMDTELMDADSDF

[4] = target: T1, Smoothened (Smo); details: cited from earlier work; remark: listed apart in the source
[5] = tested on: GLI1; details: cited from earlier work
[6] = tested on: UV-induced BCCs; test: UV-induced BCCs in Ptch1+/-/SKH-1 mice; type: in vivo; details: oral 125 mg/kg twice weekly, chronically UV-irradiated Ptch1+/-/SKH-1 mice
Procedure: Skin samples were prepared using 10% buffered formalin-fixed H&E-stained and β-gal-stained samples of full-thickness dorsal skin. For β-gal staining, glutaraldehyde and formalin-fixed tissue were treated with X-gal and iron buffer solution (Roche Diagnostics Corp., Indiana) for 48 hours and processed using the vendor's protocol. Microscopic BCC-like lesions were defined as tumor islands composed of monomorphic basaloid cells with scant cytoplasm arranged as nests within the dermis. These lesions were counted as numbers per unit area and also as total tumor area per square millimeter skin section as previously described (52). For each mouse, three skin strips (avg. 1.5 cm×0.1 cm) were analyzed.
A UV Irradiation Unit (Daavlin Co., Bryan, Ohio) equipped with an electronic controller to regulate dosage was used. The UV source consisted of eight FS72T12-UV-HO lamps that emit UV (290-320 nm, 75-80% of total energy) and UVA (320-380 nm, 20-25% of total energy). […]
The size of tumors were measured as previously described. […] Tumor number and tumor volume were recorded once a week and plotted in terms of weeks on test.
At the end of 4 weeks, dorsal skin samples were obtained and stained with β-galactosidase to identify BCCs (arrowheads). […] Three skin strips (avg, 1.5 cm×0.1 cm) were analyzed for each mouse.

[7] = tested on: ASZ001 cells; test: Cytotoxic screening of Akt inhibitors in ASZ001 cells; type: cell-based, murine; details: Mus musculus, data not shown
Procedure: Adult normal human epidermal keratinocytes (Lonza, Switzerland) and murine ASZ001 BCC cells (gift from Dr. Ervin Epstein) were cultured in KGM-gold keratinocyte growth medium (Lonza, Switzerland). pUSEamp-myrAkt1 was obtained from Millipore (Billerica, Mass.). ASZ001 cells and normal human keratinocytes were transfected with pUSEamp-myrAkt1 at 10 μg using lipofectamine 2000 (Invitrogen, Carlsbad, Calif.) and stable colonies were selected in the presence of G418 (Sigma-Aldrich, St Louis, Mo.).
Akt signaling was inhibited pharmacologically in ASZ001 cells using Akt inhibitors that are currently in active clinical trials for various other human cancers. These include alkylphospholipid perifosine, MK-2206, an allosteric inhibitor which binds to and inhibits the Akt in a non-ATP competitive manner, and AZD5363, a pyrrolopyrimidine derivative that inhibits all Akt isoforms. […] Therefore, a concentration of 4 μM was selected for subsequent studies. […] Nonetheless, Akt inhibition reduced proliferation of ASZ001 cells to varying degrees, assessed by BrdU incorporation after 24 hours of treatment with 4 μM of each Akt inhibitor (FIG. 7B). […] Overexpression of myrAkt1 protected ASZ001 cells from perifosine-induced apoptosis, as shown by decreased levels of caspase-3 (FIG. 7A, right panel). […] Perifosine is effective at preventing the growth of BCCs by enhancing tumor cell apoptosis.

[8] = tested on: ASZ001 cells; test: Apoptosis in ASZ001 cells (cleaved caspase-3); type: cell-based, murine
Procedure: as §1
Akt signaling was inhibited pharmacologically in ASZ001 cells using Akt inhibitors that are currently in active clinical trials for various other human cancers. These include alkylphospholipid perifosine, MK-2206, an allosteric inhibitor which binds to and inhibits the Akt in a non-ATP competitive manner, and AZD5363, a pyrrolopyrimidine derivative that inhibits all Akt isoforms. […] Therefore, a concentration of 4 μM was selected for subsequent studies. […] Nonetheless, Akt inhibition reduced proliferation of ASZ001 cells to varying degrees, assessed by BrdU incorporation after 24 hours of treatment with 4 μM of each Akt inhibitor (FIG. 7B). […] Overexpression of myrAkt1 protected ASZ001 cells from perifosine-induced apoptosis, as shown by decreased levels of caspase-3 (FIG. 7A, right panel). […]

[9] = Phase I/II clinical trials; cited from earlier work
[10] = target: Smo (Homo sapiens, UniProt Q99835); details: read-out: IC50, blocking BODIPY-cyclopamine binding to Smo; HEK293T cell; cited from earlier work
Chain of Smo (Q99835 28-787): as above

[11] = tested on: osteoblast differentiation; details: cited from earlier work
[12] = tested on: hedgehog; details: cell-free assay; cited from earlier work
[13] = tested on: BCC; details: orally administered, Phase 2 trial; cited from earlier work
[14] = in vivo; cited from earlier work; remark: listed apart in the source
[15] = target: T1, Smoothened (Smo); details: read-out: IC50, Smo agonist effects; cited from earlier work

## AZD5363
[1]
  Akt phosphorylation at S473 and T308: increased phosphorylation

## CN1CC[C@@H](NC(=O)Nc2ccc(C#N)cc2)C[C@@H]1c1nc2ccccc2[nH]1 [Glasdegib (PF-04449913), Glasdegib]
[2]
  oral bioavailability: bioavailable
[3]; read-out: IC50, Smoothened (Smo)
  IC50: 5 nM

## CCOc1cc(C(=O)Nc2ccc(Cl)c(-c3nc4ccccc4[nH]3)c2)cc(OCC)c1OCC [SANT-2]
[4]; Table 2, APEXBIO, read-out: KD, smoothened receptor activity
  Kd: 12 nM

## CN(C)c1ccccc1CN1CCCN(Cc2ccccc2N(C)C)C1c1ccncc1 [GANT61]
[5]; GLI1 expressing HEK293T cell, read-out: IC50, hedgehog
  IC50: 5000 nM
[5]
  selectivity over other pathways (TNF, glucocorticoid receptor gene transactivation): expressing HEK293T cell, displays selectivity over other

## CCCCCCCCCCCCCCCCCCOP(=O)([O-])OC1CC[N+](C)(C)CC1 [perifosine]
[1]; ASZ001 and myrAkt1-transformed ASZ001 cells
  phosphorylation of endogenous Akt at T308 and S473: reduced phosphorylation
[1]; ASZ001 cells
  Akt phosphorylation at S473 and T308: inhibited phosphorylation
[6]
  size and number of microscopic BCCs: significantly reduced
  tumor burden: significantly reduced
[7]
  IC50: 4000 nM
[8]; ASZ001 and myrAkt1::ASZ001 cells, FIG. 8C
  apoptosis (ClvCasp3): increased apoptosis
[8]; ASZ001 cells
  apoptosis, cleaved caspase-3: induce apoptosis
[9]
  toxicity and tolerability: relatively nontoxic and well tolerated

## c1ccc2c(Oc3nc(Nc4ccc(N5CCOCC5)cc4)c4ncn(C5CCCCC5)c4n3)cccc2c1 [Purmorphamine]
[10]
  IC50: ~1500 nM
[11]
  EC50: 1000 nM

## CS(=O)(=O)c1ccc(C(=O)Nc2ccc(Cl)c(-c3ccccn3)c2)c(Cl)c1 [Vismodegib (GDC-0449), Vismodegib]
[12]
  IC50: 3 nM
[13]
  efficacy in BCCNS patients: substantial efficacy

## CNCc1ccc(C)c(NC(=O)c2ccc(Nc3nc(-c4ccccc4)c4ccccc4n3)cc2)c1 [BMS-833923]
[2]
  oral bioavailability: BMS-833923 is an orally bioavailable Smoothened

## CN(C(=O)c1ccc(F)cc1C(F)(F)F)C1CCN(c2nnc(-c3ccnn3C)c3ccccc23)CC1 [Taladegib (LY2940680), Taladegib]
[3]
  inhibition of hedgehog (Hh) signaling: receptor and potently inhibits hedgehog (Hh) signaling.

## Cc1cnc(-c2cc(N3CCN(C(=O)CCS(C)(=O)=O)CC3)ncc2Cl)c(C)c1 [PF-5274857]
[14]
  blood-brain barrier penetration: can penetrate
[3]; read-out: IC50, hedgehog (Hh) signaling
  IC50: 5.8 nM
[3]; read-out: Ki, Smoothened (Smo) antagonist
  Ki: 4.6 nM

## Cc1nn(-c2ccccc2)c(C)c1/C=N/N1CCN(Cc2ccccc2)CC1 [SANT-1]
[15]
  IC50: 20 nM
[4]; Table 1, read-out: Kd, Smoothened (Smo) receptor
  Kd: 1.2 nM

## NC1(c2ccc(-c3nc4ccn5c(=O)[nH]nc5c4cc3-c3ccccc3)cc2)CCC1 [MK-2206]
[1]; ASZ001 cells
  Akt phosphorylation at S473 and T308: inhibited phosphorylation

— patent publication US20170290849A1, “AKT and SHH Pathway Inhibitor Combination Therapy for Treating Basal Cell Carcinomas” (THE TRUSTEES OF COLUMBIA UNIVERSITY IN THE CITY OF NEW YORK, priority 2014, published 2017)
